# According to patent US20260232767A1, “INTERLEUKIN-23 RECEPTOR ANTAGONIST PEPTIDES FOR USE IN THE TREATMENT OF PSORIASIS” (Janssen Pharmaceutica NV, priority 2023, published 2026):
# Test system: subjects with moderate-to-severe plaque psoriasis
# Assay: PASI response, Example 1 16-week dose-ranging study
# Format: in vivo, human
# Conditions: Week 16; for PASI 100% Improvement, n subjects / PASI ≥75% Improvement, n subjects / PASI ≥90% Improvement, n subjects / PASI ≥75% Improvement, % subjects / PASI ≥90% Improvement, % subjects: N=2
# Description: The Psoriasis Area and Severity Index (PASI) is a system used for assessing and grading the severity of psoriatic lesions and their response to therapy. In the PASI system, the body is divided into four regions: the head, trunk, upper extremities, and lower extremities. Each of these areas is assessed and scored separately for erythema, induration, and scaling, which are each rated on a scale of 0 to 4 and extent of involvement on a scale of 0 to 6. The PASI produces a numeric score (a “PASI score”) that can range from 0 to 72. A higher score indicates more severe disease.
# This was a randomized, double-blind, placebo-controlled, dose-ranging, parallel group, multicenter, interventional study in subjects with moderate-to-severe plaque psoriasis. A target of 240 subjects were enrolled in this study with 40 subjects planned per intervention group.
# Clinician-reported outcomes including Psoriasis Area and Severity Index (PASI), Body Surface Area (BSA), Investigator's Global Assessment (IGA), Nail Psoriasis Area and Severity Index (NAPSI), Fingernail Physician's Global Assessment (f-PGA), Static Physician's Global Assessment of Genitalia (s-PGA-G), Physician's Global Assessment of Hands and/or Feet (hf-PGA), and Scalp Specific Investigator Global Assessment (ss-IGA) were obtained at Week 0, 8, and 16. PASI and IGA were also obtained at Weeks 1, 2, 4, and 12, and at Week 20, four weeks after the administration of the tablets has stopped.
# The primary efficacy endpoint was the proportion of participants achieving a PASI 75 response at Week 16, defined as at least a 75% reduction from baseline in PASI total score.
# For the primary analysis, composite strategy (non-responder imputation) was applied to address intercurrent event #1 (Discontinuation of study intervention due to lack of efficacy or due to an AE of worsening of psoriasis) and #2 (initiation of a protocol-prohibited medication or therapy that could improve psoriasis); and treatment policy strategy (observed data) was applied to intercurrent event #3 (Discontinuation of study intervention due to other reasons). Participants with missing data after application of ICEs are also considered as non-responders.
# In addition to the response analysis, pairwise comparisons of each treatment group versus the placebo group were performed for the primary endpoint of PASI 75 at Week 16. Pairwise comparisons were not adjusted for multiplicity. The Cochran-Mantel-Haenszel chi-square statistic stratified by baseline weight category (≤90 kg, >90 kg) at a 2-sided significance level of 0.05 was used (Table 2).
# [1] = 25 mg BID, peak plasma conc. <Q1
# [2] = 25 mg BID, peak plasma conc. Q1 to <Q2
# [3] = 25 mg BID, peak plasma conc. Q2 to <Q3
# [4] = 25 mg BID, peak plasma conc. ≥Q3
# [5] = 25 mg BID, trough plasma conc <Q1
# [6] = 25 mg BID, trough plasma conc Q1 to <Q2
# [7] = 25 mg BID, trough plasma conc Q2 to <Q3
# [8] = 25 mg BID, trough plasma conc ≥Q3
# [9] = 25 mg QD, peak plasma conc. <Q1
# [10] = 25 mg QD, peak plasma conc. Q1 to <Q2
# [11] = 25 mg QD, peak plasma conc. Q2 to <Q3
# [12] = 25 mg QD, peak plasma conc. ≥Q3
# [13] = 25 mg QD, trough plasma conc <Q1
# [14] = 25 mg QD, trough plasma conc Q1 to <Q2
# [15] = 25 mg QD, trough plasma conc Q2 to <Q3
smiles,measurement,setting,value
"CC(=O)NCCCC[C@@H]1NC(=O)[C@H](Cc2c[nH]c3c(C)cccc23)NC(=O)[C@H]([C@@H](C)O)NC(=O)[C@H](CC(N)=O)NC(=O)[C@@H](NC(C)=O)C(C)(C)SSC(C)(C)[C@@H](C(=O)N[C@@H](Cc2ccc(OCCN)cc2)C(=O)N[C@@H](Cc2ccc3ccccc3c2)C(=O)NC2(C(=O)N[C@@H](CCC(=O)O)C(=O)N[C@@H](CC(N)=O)C(=O)N[C@@H](Cc3cccnc3)C(=O)N(C)CC(N)=O)CCOCC2)NC1=O [IL-23 receptor antagonist peptide, Ac-[Pen]*-N-T-[W(7-Me)]-[Lys(Ac)]-[Pen]*-Phe[4-(2-aminoethoxy)]-[2-Nal]-[THP]-E-N-[3-Pal]-Sarc-NH2 (*[Pen]-[Pen]* formdisulfidebond)]",PASI 75 treatment difference vs placebo,25 mg BID,41.9%
same,PASI 90 treatment difference vs placebo,25 mg BID,"24.5% (10.4%,"
same,PASI 100 treatment difference vs placebo,25 mg BID,"9.7% (0.7%,"
same,Subjects achieving PASI 75,25 mg BID,51.2%
same,Subjects achieving PASI 90,25 mg BID,(26.8%)
same,Subjects achieving PASI 100,25 mg BID,(9.8%)
same,"PASI 75, %","25 mg BID, N=41",(51.2) %
same,"PASI 90, %","25 mg BID, N=41",(26.8) %
same,"PASI 100, %","25 mg BID, N=41",(9.8) %
same,"PASI 100% Improvement, n subjects",[1],0
same,"PASI ≥75% Improvement, n subjects",[1],0
same,"PASI ≥90% Improvement, n subjects",[1],0
same,"PASI 100% Improvement, n subjects",[2],0
same,"PASI ≥75% Improvement, % subjects",[2],(100.0%)
same,"PASI ≥75% Improvement, n subjects",[2],2
same,"PASI ≥90% Improvement, n subjects",[2],0
same,"PASI 100% Improvement, n subjects",[3],0
same,"PASI ≥75% Improvement, % subjects",[3],(50.0%)
same,"PASI ≥75% Improvement, n subjects",[3],1
same,"PASI ≥90% Improvement, % subjects",[3],(50.0%)
same,"PASI ≥90% Improvement, n subjects",[3],1
same,"PASI 100% Improvement, n subjects",[4],0
same,"PASI ≥75% Improvement, % subjects",[4],(50.0%)
same,"PASI ≥75% Improvement, n subjects",[4],1
same,"PASI ≥90% Improvement, % subjects",[4],(50.0%)
same,"PASI ≥90% Improvement, n subjects",[4],1
same,"PASI 100% Improvement, subjects",[5],1 (16.7%)
same,"PASI ≥75% Improvement, subjects",[5],3 (50.0%)
same,"PASI ≥90% Improvement, subjects",[5],2 (33.3%)
same,"PASI 100% Improvement, subjects",[6],1 (16.7%)
same,"PASI ≥75% Improvement, subjects",[6],1 (16.7%)
same,"PASI ≥90% Improvement, subjects",[6],1 (16.7%)
same,"PASI 100% Improvement, subjects",[7],0
same,"PASI ≥75% Improvement, subjects",[7],3 (50.0%)
same,"PASI ≥90% Improvement, subjects",[7],2 (33.3%)
same,"PASI 100% Improvement, subjects",[8],2 (33.3%)
same,"PASI ≥75% Improvement, subjects",[8],100.0%
same,"PASI ≥90% Improvement, subjects",[8],3 (50.0%)
same,PASI 75 treatment difference vs placebo,25 mg QD,27.9%
same,PASI 90 treatment difference vs placebo,25 mg QD,"23.3% (9.6%,"
same,PASI 100 treatment difference vs placebo,25 mg QD,"11.6% (2.4%,"
same,Subjects achieving PASI 90,25 mg QD,(25.6%)
same,Subjects achieving PASI 100,25 mg QD,(11.6%)
same,"PASI 75, %","25 mg QD, N=43",(37.2) %
same,"PASI 90, %","25 mg QD, N=43",(25.6) %
same,"PASI 100, %","25 mg QD, N=43",(11.6) %
same,"PASI 100% Improvement, n subjects",[9],0
same,"PASI ≥75% Improvement, % subjects",[9],(50.0%)
same,"PASI ≥75% Improvement, n subjects",[9],1
same,"PASI ≥90% Improvement, % subjects",[9],(50.0%)
same,"PASI ≥90% Improvement, n subjects",[9],1
same,"PASI 100% Improvement, n subjects",[10],0
same,"PASI ≥75% Improvement, % subjects",[10],(50.0%)
same,"PASI ≥75% Improvement, n subjects",[10],1
same,"PASI ≥90% Improvement, % subjects",[10],(50.0%)
same,"PASI ≥90% Improvement, n subjects",[10],1
same,"PASI 100% Improvement, n subjects",[11],0
same,"PASI ≥75% Improvement, % subjects",[11],(50.0%)
same,"PASI ≥75% Improvement, n subjects",[11],1
same,"PASI ≥90% Improvement, % subjects",[11],(50.0%)
same,"PASI ≥90% Improvement, n subjects",[11],1
same,"PASI 100% Improvement, n subjects",[12],0
same,"PASI ≥75% Improvement, % subjects",[12],(50.0%)
same,"PASI ≥75% Improvement, n subjects",[12],1
same,"PASI ≥90% Improvement, % subjects",[12],(50.0%)
same,"PASI ≥90% Improvement, n subjects",[12],1
same,"PASI 100% Improvement, subjects",[13],1 (20.0%)
same,"PASI ≥75% Improvement, subjects",[13],2 (40.0%)
same,"PASI ≥90% Improvement, subjects",[13],2 (40.0%)
same,"PASI 100% Improvement, subjects",[14],1 (16.7%)
same,"PASI ≥75% Improvement, subjects",[14],2 (33.3%)
same,"PASI ≥90% Improvement, subjects",[14],2 (33.3%)
same,"PASI 100% Improvement, subjects",[15],0)
same,"PASI ≥75% Improvement, subjects",[15],2 (40.0%)
same,"PASI ≥90% Improvement, subjects",[15],0
